These are literature values, as cited in US20200123146A1, “HETEROCYCLIC INTEGRIN AGONISTS” (GB006, Inc., priority 2016, published 2020).

One data set has as its system leukocytes. Conditions: acute peritonitis in mice; cited from earlier work.
The conditions of data set [1]: upon vascular injury in rats; cited from earlier work.
The conditions of data set [2]: in vivo; cited from earlier work.
For data set [3] the following is noted: in vivo; cited from earlier work. The source holds these as a separate data set.
For data set [4] the following is noted: mice; cited from earlier work.
The conditions of data set [5]: in vivo; cited from earlier work. This is another data set of the same source.
For data set [6] the following is noted: in vivo; cited from earlier work. This is another data set of the same source.
Another data set has as its system tumor. To be noted: in vivo; cited from earlier work.

Take `O=C(O)c1ccc(-c2ccc(/C=C3\SC(=S)N(Cc4ccccc4)C3=O)o2)cc1` [LA1, (Z)-4-(5-((3-benzyl-4-oxo-2-thioxothiazolidin-5-ylidene)methyl)furan-2-yl)benzoic acid]: the recruitment of leukocytes result in the data set with leukocytes is given as “reduce recruitment of leukocytes”. Besides, in data set [1], the neointimal thickening entry is reported as “reduce neointimal thickening”. The hyperoxia-dependent lung injury result in data set [2] is “reduce hyperoxia-dependent lung injury”. In addition, the liver fibrosis entry in data set [3] was “reduce liver fibrosis”. Besides, the renal ischemia/reperfusion injury entry in data set [4] was “reduce renal ischemia/reperfusion injury”. The allograft survival result in data set [5] was “increase allograft survival”. In addition, the liver repair result in data set [6] is “enhance liver repair”. The “tumor growth and re-growth” value in the data set on tumor was “reduced tumor growth and re-growth”.
